How the values were obtained:
Assay type in all cases: biochemical
PKR R510Q = PKR R510Q (Homo sapiens, UniProt P30613, R510Q); assay: PKR R510Q Single Point Percent Activation Assay; conditions: read-out: Act. % 510Q
Outline: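 Test compound was used at a single concentration of 1 μM and preincubated 60 min at room temperature with PKR R510Q (40 ng/well). The buffer was 50 mM Tris pH 7.5, 100 mM KCl, 5 mM MgCl2, 1 mM DTT and 0.03% BSA. The reaction was started with 0.2 mM ADP and read as OD340 in an LDH-coupled system (0.11 mM PEP, 180 μM NADH).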

PKR R532W = PKR R532W (Homo sapiens, UniProt P30613, R532W); assay: PKR R532W Single Point Percent Activation Assay; conditions: read-out: Act, % 532W
Outline: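 PKR R532W (100 ng/well) preincubated 60 min at RT with compound at 1 μM in Tris pH 7.5, KCl, MgCl2, DTT, BSA. Reaction started with ADP (0.36 mM), with PEP 0.1 mM, NADH 180 μM and LDH coupling; read at OD340, room temperature.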

PKR wt = PKR wt (Homo sapiens, UniProt P30613); assay: PKR WT Single Point Percent Activation Assay
Outline: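 Single concentration of 1 μM compound preincubated 60 min at RT with PKR wt (100 ng/well) in Tris pH 7.5, KCl, MgCl2, DTT, BSA. Reaction started with ADP (0.48 mM final) with PEP 0.15 mM, coupled LDH/NADH (180 μM), read at OD340, room temperature; given as percent activation.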

PKR T384W = PKR T384W (Homo sapiens, UniProt P30613, T384W); assay: PKR T384W Single Point Percent Activation Assay; conditions: read-out: Act. % 384W
Outline: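 Soluble PKR T384W (300 ng/well) preincubated 60 min at RT with 1 μM compound in 50 mM Tris pH 7.5, 100 mM KCl, 5 mM MgCl2, 1 mM DTT, 0.03% BSA. Started with ADP (0.08 mM); PEP 0.23 mM, LDH-coupled NADH (180 μM) consumption read at OD340, room temperature.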

Sequence of PKR R532W (P30613 whole entry R532W): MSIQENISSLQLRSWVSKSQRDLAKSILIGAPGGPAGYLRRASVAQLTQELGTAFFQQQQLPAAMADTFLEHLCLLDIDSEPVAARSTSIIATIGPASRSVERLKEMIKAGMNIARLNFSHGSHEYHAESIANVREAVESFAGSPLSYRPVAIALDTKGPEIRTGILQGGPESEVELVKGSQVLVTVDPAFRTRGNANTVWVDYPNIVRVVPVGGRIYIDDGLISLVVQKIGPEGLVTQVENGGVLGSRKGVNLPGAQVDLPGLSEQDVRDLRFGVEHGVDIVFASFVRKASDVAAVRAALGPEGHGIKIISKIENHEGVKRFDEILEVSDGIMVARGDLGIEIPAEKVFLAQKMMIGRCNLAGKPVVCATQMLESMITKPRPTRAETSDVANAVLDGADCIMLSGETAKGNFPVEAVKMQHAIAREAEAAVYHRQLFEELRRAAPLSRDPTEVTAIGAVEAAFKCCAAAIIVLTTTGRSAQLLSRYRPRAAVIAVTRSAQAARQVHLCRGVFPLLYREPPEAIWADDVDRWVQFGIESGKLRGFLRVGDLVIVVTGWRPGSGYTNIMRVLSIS
Sequence of PKR R510Q (P30613 whole entry R510Q): as the sequence (P30613 whole entry R532W) above, with R510Q, W532R counted along it
Sequence of PKR T384W (P30613 whole entry T384W): as the sequence (P30613 whole entry R532W) above, with T384W, W532R counted along it
Sequence of PKR wt (P30613 whole entry): as the sequence (P30613 whole entry R532W) above, with W532R counted along it

## CC1CN(Cc2cc(F)cc(F)c2)CC(C)N1C(=O)c1ccc(NS(=O)(=O)c2cccc3cccnc23)cc1 (stereo not shown)
PKR R510Q
  activation at 1 µM: 101 to 500%
PKR R532W
  activation at 1 µM: 101 to 500%
PKR wt
  activation at 1 µM: 1 to 100%
PKR T384W
  activation at 1 µM: 1 to 100%

## C[C@H]1CN(Cc2ccccc2F)CCN1C(=O)c1ccc(NS(=O)(=O)c2cccc3cccnc23)cc1
PKR R510Q
  activation at 1 µM: 1 to 100%
PKR R532W
  activation at 1 µM: 101 to 500%
PKR wt
  activation at 1 µM: 101 to 500%
PKR T384W
  activation at 1 µM: 101 to 500%

## CC(c1cc(F)cc(F)c1)N1CCN(C(=O)c2ccc(NS(=O)(=O)c3cccc4cccnc34)cc2)[C@H](C)C1 (stereo partly shown)
PKR R510Q
  activation at 1 µM: 101 to 500%
PKR R532W
  activation at 1 µM: 101 to 500%
PKR wt
  activation at 1 µM: 101 to 500%
PKR T384W
  activation at 1 µM: 101 to 500%

## CC(c1ccc(F)cc1F)N1CCN(C(=O)c2ccc(NS(=O)(=O)c3cccc4cccnc34)cc2)[C@@H](C)C1 (stereo partly shown)
PKR R510Q
  activation at 1 µM: 1 to 100%
PKR R532W
  activation at 1 µM: 101 to 500%
PKR wt
  activation at 1 µM: 101 to 500%
PKR T384W
  activation at 1 µM: 101 to 500%

## CC1CN(Cc2cc(F)c(F)c(F)c2)CC(C)N1C(=O)c1ccc(NS(=O)(=O)c2cccc3cccnc23)cc1 (stereo not shown)
PKR R510Q
  activation at 1 µM: 1 to 100%
PKR R532W
  activation at 1 µM: 101 to 500%
PKR wt
  activation at 1 µM: 1 to 100%
PKR T384W
  activation at 1 µM: 1 to 100%

## O=C(c1ccc(NS(=O)(=O)c2cccc3cccnc23)cc1)N1CCN(CC2CC2)C[C@@H]1c1ccccc1
PKR R510Q
  activation at 1 µM: 1 to 100%
PKR R532W
  activation at 1 µM: 1 to 100%
PKR wt
  activation at 1 µM: 1 to 100%
PKR T384W
  activation at 1 µM: 1 to 100%

## O=C(c1ccc(NS(=O)(=O)c2cccc3cccnc23)cc1)N1CC2CCC(C1)N2CC1CC1
PKR R510Q
  activation at 1 µM: 101 to 500%
PKR R532W
  activation at 1 µM: 101 to 500%
PKR wt
  activation at 1 µM: 1 to 100%
PKR T384W
  activation at 1 µM: 101 to 500%

## C[C@H]1CN(Cc2ccc(F)cc2)CCN1C(=O)c1ccc(NS(=O)(=O)c2cccc3cccnc23)cc1
PKR R510Q
  activation at 1 µM: 101 to 500%
PKR R532W
  activation at 1 µM: 1 to 100%
PKR wt
  activation at 1 µM: 101 to 500%
PKR T384W
  activation at 1 µM: 101 to 500%

## C[C@@H]1CN(CC2CCCCO2)CCN1C(=O)c1ccc(NS(=O)(=O)c2cccc3cccnc23)cc1 (stereo partly shown)
PKR R510Q
  activation at 1 µM: 1 to 100%
PKR R532W
  activation at 1 µM: 101 to 500%
PKR wt
  activation at 1 µM: 101 to 500%
PKR T384W
  activation at 1 µM: 101 to 500%

## O=C(c1ccc(NS(=O)(=O)c2cccc3cccnc23)cc1)N1C2CCC1CN(Cc1ccc(F)cc1)C2
PKR R510Q
  activation at 1 µM: 101 to 500%
PKR R532W
  activation at 1 µM: 1 to 100%
PKR wt
  activation at 1 µM: 1 to 100%
PKR T384W
  activation at 1 µM: 101 to 500%

## CC(c1cc(F)c(F)c(F)c1)N1CCN(C(=O)c2ccc(NS(=O)(=O)c3cccc4cccnc34)cc2)[C@H](C)C1 (stereo partly shown)
PKR R510Q
  activation at 1 µM: 101 to 500%
PKR R532W
  activation at 1 µM: 1 to 100%
PKR wt
  activation at 1 µM: 1 to 100%
PKR T384W
  activation at 1 µM: 101 to 500%

## C[C@H]1CN(Cc2ccc(F)cc2)CCN1C(=O)c1ccc(NS(=O)(=O)c2cccc3cccnc23)cc1Cl
PKR R510Q
  activation at 1 µM: 1 to 100%
PKR R532W
  activation at 1 µM: 101 to 500%
PKR wt
  activation at 1 µM: 1 to 100%
PKR T384W
  activation at 1 µM: 1 to 100%

## C[C@@H]1CN(C[C@@H]2CCCO2)CCN1C(=O)c1ccc(NS(=O)(=O)c2cccc3cccnc23)cc1
PKR R510Q
  activation at 1 µM: 101 to 500%
PKR R532W
  activation at 1 µM: 101 to 500%
PKR wt
  activation at 1 µM: 101 to 500%
PKR T384W
  activation at 1 µM: 101 to 500%

## CC[C@H]1CN(C(C)c2cc(F)cc(F)c2)CCN1C(=O)c1ccc(NS(=O)(=O)c2cccc3cccnc23)cc1 (stereo partly shown)
PKR R510Q
  activation at 1 µM: 1 to 100%
PKR R532W
  activation at 1 µM: 1 to 100%
PKR wt
  activation at 1 µM: 1 to 100%
PKR T384W
  activation at 1 µM: 1 to 100%

## C[C@H]1CN(Cc2cc(F)cc(F)c2F)CCN1C(=O)c1ccc(NS(=O)(=O)c2cccc3cccnc23)cc1
PKR R510Q
  activation at 1 µM: 1 to 100%
PKR R532W
  activation at 1 µM: 1 to 100%
PKR wt
  activation at 1 µM: 101 to 500%
PKR T384W
  activation at 1 µM: 101 to 500%

## CC(c1ccc(F)cc1Cl)N1CCN(C(=O)c2ccc(NS(=O)(=O)c3cccc4cccnc34)cc2)[C@H](C)C1 (stereo partly shown)
PKR R510Q
  activation at 1 µM: 1 to 100%
PKR R532W
  activation at 1 µM: 101 to 500%
PKR wt
  activation at 1 µM: 101 to 500%
PKR T384W
  activation at 1 µM: 101 to 500%

## CC(c1cc(F)cc(F)c1)N1CCN(C(=O)c2ccc(NS(=O)(=O)c3cccc4cccnc34)cc2)[C@@H](C)C1 (stereo partly shown)
PKR R510Q
  activation at 1 µM: 1 to 100%
PKR R532W
  activation at 1 µM: 1 to 100%
PKR wt
  activation at 1 µM: 1 to 100%
PKR T384W
  activation at 1 µM: 1 to 100%

## C[C@@H]1CN(Cc2cc(F)c(F)c(F)c2)CCN1C(=O)c1ccc(NS(=O)(=O)c2cccc3cccnc23)cc1
PKR R510Q
  activation at 1 µM: 101 to 500%
PKR R532W
  activation at 1 µM: 1 to 100%
PKR wt
  activation at 1 µM: 1 to 100%
PKR T384W
  activation at 1 µM: 1 to 100%

## CC(c1c(F)cccc1F)N1CCN(C(=O)c2ccc(NS(=O)(=O)c3cccc4cccnc34)cc2)[C@H](C)C1 (stereo partly shown)
PKR R510Q
  activation at 1 µM: 101 to 500%
PKR R532W
  activation at 1 µM: 1 to 100%
PKR wt
  activation at 1 µM: 1 to 100%
PKR T384W
  activation at 1 µM: 1 to 100%

— patent publication US9404081B2, “Pyruvate kinase activators for use in therapy” (AGIOS PHARMACEUTICALS, INC., priority 2011, dated 2016)
